# ChEMBL document CHEMBL3046048, “Design and synthesis of new 2,4,5-triarylimidazole derivatives as selective cyclooxygenase (COX-2) inhibitors” (Med Chem Res, 2012)
# Target: T1, Prostaglandin G/H synthase 1 (Ovis aries, UniProt P05979)
# T1 sequence (P05979 whole entry): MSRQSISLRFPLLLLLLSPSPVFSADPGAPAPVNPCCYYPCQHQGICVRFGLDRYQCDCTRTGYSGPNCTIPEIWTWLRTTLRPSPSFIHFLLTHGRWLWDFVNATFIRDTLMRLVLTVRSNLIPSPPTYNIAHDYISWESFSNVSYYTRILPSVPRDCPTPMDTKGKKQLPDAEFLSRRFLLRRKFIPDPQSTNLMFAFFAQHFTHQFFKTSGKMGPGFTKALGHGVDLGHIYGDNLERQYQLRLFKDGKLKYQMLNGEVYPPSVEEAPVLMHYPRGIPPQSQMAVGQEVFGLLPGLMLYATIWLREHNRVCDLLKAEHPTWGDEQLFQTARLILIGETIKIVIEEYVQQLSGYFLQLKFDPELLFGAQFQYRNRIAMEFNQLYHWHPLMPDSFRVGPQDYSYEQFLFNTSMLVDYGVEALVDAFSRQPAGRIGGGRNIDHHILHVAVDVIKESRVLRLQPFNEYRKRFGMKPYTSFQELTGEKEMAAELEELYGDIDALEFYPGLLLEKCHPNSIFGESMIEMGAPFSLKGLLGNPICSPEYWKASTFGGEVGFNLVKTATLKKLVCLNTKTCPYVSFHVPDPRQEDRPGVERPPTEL
# Experiment: Inhibition of Ovis aries (sheep) COX1 using arachidonic acid as substrate using cyclic naphthalene hydrazide by chemiluminescence assay
row,SMILES,IC50
1,CC(=O)Nc1ccc(-c2nc(-c3ccc(S(C)(=O)=O)cc3)c(-c3ccccc3)[nH]2)cc1,10.4 µM
2,CS(=O)(=O)c1ccc(-c2nc(-c3ccc(O)cc3)[nH]c2-c2ccccc2)cc1,11.3 µM
3,COc1ccc(-c2nc(-c3ccc(S(C)(=O)=O)cc3)c(-c3ccccc3)[nH]2)cc1,10.6 µM
4,CS(=O)(=O)c1ccc(-c2nc(-c3ccc(Cl)cc3)[nH]c2-c2ccccc2)cc1,10.1 µM
5,Cc1ccc(-c2nc(-c3ccc(S(C)(=O)=O)cc3)c(-c3ccccc3)[nH]2)cc1,10.4 µM
6,CS(=O)(=O)c1ccc(-c2nc(-c3ccc(F)cc3)[nH]c2-c2ccccc2)cc1,11.1 µM
7,CS(=O)(=O)c1ccc(-c2nc(-c3ccccc3)[nH]c2-c2ccccc2)cc1,9.9 µM
